Test results published in patent US20240261417A1, “SOS1 DEGRADING AGENT AND PREPARATION METHOD THEREFOR AND APPLICATION THEREOF” (SHANGHAI LEADINGTAC PHARMACEUTICAL CO. LTD., priority 2021, published 2024).

What follows are compounds tested on KRAS G13D mutant human colorectal adenocarcinoma epithelial cells DLD-1 (assay: 3D cell proliferation inhibition assay, DLD-1). Settings: Homo sapiens, DLD-1, 168 h, 7 days, CTG.
Assay type: cell-based
Description: Inhibition of 3D cell proliferation by the compounds was investigated on KRAS G12C mutant human non-small cell lung cancer cells NCI-H358 (ATCC or Stem Cell Bank, Chinese Academy of Sciences), KRAS G12D mutant human metastatic pancreatic adenocarcinoma cells AsPC-1 (ATCC), KRAS G12V mutant human lung adenocarcinoma cells NCI-H441 (ATCC), and KRAS G13D mutant human colorectal adenocarcinoma epithelial cells DLD-1 (ATCC). The specific procedures were as follows:
200 nL of compound solution diluted in a gradient was added to corresponding microwells of a 384-well low-adsorption microwell plate (Corning, 3657) using an Echo sonic pipetting system (Labcyte, Echo 550), so that the final concentration of the test compound in the reaction system was in a range of 20000 nM-0.008 nM. Then 40 μL of cells at a certain density were added to the corresponding microplate. In addition to test wells for the test compounds, both a DMSO control well and a medium control well were set, with the DMSO control well containing DMSO and cells and the medium well containing only medium. After sample loading, the plate cover was applied, and the 384-well low-adsorption microplate was incubated in an incubator at 37° C. with 5% carbon dioxide for 7 days. After 7 days, the microplate was taken out, and 40 μL of CTG reagent (Promega, G9683) was added to each well. The plate was incubated at room temperature for 30 min and read on a microplate reader EnVision using the chemiluminescence program. The inhibition rates of the compounds at each concentration were calculated by the formula for the percentage inhibition of cell proliferation: inhibition rate %=(mean value of DMSO control group−single concentration reading value of compound)/(mean value of DMSO control group−mean value of medium control group)×100, and then nonlinear curve fitting was performed by GraphPad Prism 8 in the logarithmic concentration-inhibition rate to obtain the IC50 values of the compounds.

Row | SMILES | IC50 [nM]
1 | COc1cc2nc(C)nc(N[C@H](C)c3cc(N)cc(C(F)(F)F)c3)c2cc1[C@H]1CC[C@H](C(=O)N2CCN(CCC3CCC4(CC3)CCN(C(=O)c3ccc(Cl)c(N5CCC(=O)NC5=O)c3)CC4)CC2)CC1 [Example 1, 1-(5-(9-(2-(4-((1R,4R)-4-(4-(((R)-1-(3-amino-5-(trifluoromethyl)phenyl)ethyl)amino)-7-methoxy-2-methylquinazolin-6-yl)cyclohexane-1-carbonyl)piperazin-1-yl)ethyl)-3-azaspiro[5.5]undecane-3-carbonyl)-2-chlorophenyl)dihydropyrimidine-2,4(1H,3H)-dione] | 30 to 50
2 | COc1cc2nc(C)nc(N[C@H](C)c3cc(N)cc(C(F)(F)F)c3)c2cc1[C@H]1CC[C@H](C(=O)N2CCN(CCOCC3CCN(C(=O)c4ccc(Cl)c(N5CCC(=O)NC5=O)c4)CC3)CC2)CC1 [Example 33, 1-(5-(4-((2-(4-((1R,4R)-4-(4-(((R)-1-(3-amino-5-(trifluoromethyl)phenyl)ethyl)amino)-7-methoxy-2-methylquinazolin-6-yl)cyclohexane-1-carbonyl)piperazin-1-yl)ethoxy)methyl)piperidine-1-carbonyl)-2-chlorophenyl)dihydropyrimidine-2,4(1H,3H)-dione] | 50 to 100
3 | COc1cc2nc(C)nc(N[C@H](C)c3cc(N)cc(C(F)(F)F)c3)c2cc1[C@H]1CC[C@H](C(=O)N2CCC(CCOCC3CCN(C(=O)c4ccc(Cl)c(N5CCC(=O)NC5=O)c4)CC3)CC2)CC1 [Example 19, 1-(5-(4-((2-(1-((1R,4R)-4-(4-(((R)-1-(3-amino-5-(trifluoromethyl)phenyl)ethyl)amino)-7-methoxy-2-methylquinazolin-6-yl)cyclohexane-1-carbonyl)piperidin-4-yl)ethoxy)methyl)piperidine-1-carbonyl)-2-chlorophenyl)dihydropyrimidine-2,4(1H,3H)-dione] | 100 to 1000

More lines, now with the values ahead:

Row | IC50 [nM] | SMILES
4 | 15 to 30 | COc1cc2nc(C)nc(N[C@H](C)c3cccc4c3CCS4(=O)=O)c2cc1[C@H]1CC[C@H](C(=O)N2CCN(CC3CCC4(CC3)CCN(C(=O)c3ccc(Cl)c(N5CCC(=O)NC5=O)c3)CC4)CC2)CC1 [Example 10, 1-(2-chloro-5-(9-((4-((1R,4R)-4-(4-(((R)-1-(1,1-dioxo-2,3-dihydrobenzo[b]thiophen-4-yl)ethyl)amino)-7-methoxy-2-methylquinazolin-6-yl)cyclohexane-1-carbonyl)piperazin-1-yl)methyl)-3-azaspiro[5.5]undecane-3-carbonyl)phenyl)dihydropyrimidine-2,4(1H,3H)-dione]
5 | 15 to 30 | COc1cc2nc(C)nc(N[C@H](C)c3cc(N)cc(C(F)(F)F)c3)c2cc1[C@H]1CC[C@H](C(=O)N2CCN(CC3CCC4(CC3)CCN(C(=O)c3ccc(Cl)c(N5CCC(=O)NC5=O)c3)CC4)CC2)CC1 [Example 2, 1-(5-(9-((4-((1R,4R)-4-(4-(((R)-1-(3-amino-5-(trifluoromethyl)phenyl)ethyl)amino)-7-methoxy-2-methylquinazolin-6-yl)cyclohexane-1-carbonyl)piperazin-1-yl)methyl)-3-azaspiro[5.5]undecane-3-carbonyl)-2-chlorophenyl)dihydropyrimidine-2,4(1H,3H)-dione]
6 | 50 to 100 | CNCc1ccccc1-c1csc([C@@H](C)Nc2nc(C)nc3cc(OC)c([C@H]4CC[C@H](C(=O)N5CCN(CC6CCC7(CC6)CCN(C(=O)c6ccc(OC)c(N8CCC(=O)NC8=O)c6)CC7)CC5)CC4)cc23)c1 [Example 73, 1-(2-methoxy-5-(9-((4-((1R,4R)-4-(7-methoxy-2-methyl-4-(((R)-1-(4-(2-((methylamino)methyl)phenyl)thien-2-yl)ethyl)amino)quinazolin-6-yl)cyclohexane-1-carbonyl)piperazin-1-yl)methyl)-3-azaspiro[5.5]undecane-3-carbonyl)phenyl)dihydropyrimidine-2,4(1H,3H)-dione]
